Values of other authors, collected in patent US8247391B2, “Gel compositions” (De Montfort University, priority 2001, dated 2012).
≈ marks a conversion by molar mass, not a printed value.

details: room temperature, pH 7.3 buffer (with antioxidants)

Q: For `CC1=C(/C=C/C(C)=C/C=C/C(C)=C/C=O)C(C)(C)CCC1` [retinal, retinaldehyde], which water solubility is on record?
A: 0.11 µM (≈ 0.0313 µg/mL)

Q: Which water solubility does the source give for `CC1=C(/C=C/C(C)=C/C=C/C(C)=C/C(=O)O)C(C)(C)CCC1` [retinoic acid] here?
A: 0.21 µM (≈ 0.0631 µg/mL)

Q: For `CC1=C(/C=C/C(C)=C/C=C/C(C)=C/CO)C(C)(C)CCC1` [retinol, Retinol], which water solubility is on record?
A: 0.06 µM (≈ 0.0172 µg/mL)
